Results on one compound are retold here after patent US10689622B2, “Culture medium for proliferating stem cell, which contains sulfated compound” (AJINOMOTO CO., INC., priority 2012, dated 2020).

One data set addresses T1, bFGF (Homo sapiens, UniProt P09038).
T1 construct: purchased Lonza (via TAKARA BIO INC.) Ser. No. 00/190,632
In words: Evaluation of bFGF stabilization in Essential 8 medium (ELISA). It counts as biochemical. To be noted: 37° C. for 7 days. In outline: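 Test compound in PBS diluted 10-fold into serum-free medium (Essential 8 or ReproFF2), held sealed at 37° C for 7 days; remaining bFGF quantified by ELISA against a standard curve. Controls: PBS without compound diluted into each medium, held 7 days at 37° C or 4° C.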
A general note: An ELISA detects its analyte on a solid surface through an enzyme-linked reagent.

Data set [1] is described as follows: Measurement of content level of sulfur in test compound (ICP). It counts as physicochemical. In outline: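 Sulfur content was measured by ICP emission spectrometry on samples containing 0.01 wt % test compound. Values came from a calibration curve of sulfur standards at 0, 1, 10, 30 and 50 ppm.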
Data set [2] concerns Human bone marrow-derived mesenchymal stem cells. Briefly: Mesenchymal stem cell proliferation system (cell number by DNA quantification). To be noted: growth of mesenchymal stem cell, control ratio.
Procedure: Human bone marrow-derived mesenchymal stem cells (Lonza, Human Mesenchymal Stem Cell) cultured in mesenchymal stem cell-dedicated medium (Lonza, MSCGM) or Dulbecco's Modified Eagle Medium (Invitrogen, GIBCO D-MEM) containing inactivated fetal bovine serum (Invitrogen, GIBCO FBS) and penicillin-streptomycin (Sigma-Aldrich Co. LLC.) were cultured in exchanged Lonza serum-free medium. The mesenchymal stem cells thus-acclimated to serum-free culture were suspended in Lonza serum-free medium, and seeded on a 24 well culture plate (Nippon Becton Dickinson Company, Ltd., Falcon culture plate) at 20,000 cells/well or a 6 well culture plate (Nippon Becton Dickinson Company, Ltd., Falcon culture plate) at 50,000 cells/well. Then, a test compound solution after filter sterilization and adjustment to a given concentration was added, and the cells were cultured in an incubator (Thermo Scientific, Forma incubator) under the 5% CO2/37° C. conditions for 7 to 8 days. When the medium exchange was necessary, the medium was exchanged 2 to 3 days after the seeding. In this case, the test compound solution was also added again in the same manner as in seeding. In this case, various compound solutions were added again in the same manner as in seeding. After culturing for 7 to 8 days, the medium was removed and DNA quantification was performed. As a control, the cells were cultured in the same manner in a medium without a test compound and added with phosphate buffered saline.
The medium in the 24 well culture plate was removed, and the cells were washed with phosphate buffered saline. The sodium lauryl sulfate solution (500 μl/well) was added, and the mixture was left standing at 37° C. for 4 hours. The sodium lauryl sulfate solution (1.0 ml) was also added to a cell pellet with a known cell number, and the mixture was left standing at 37° C. for 4 hours. As for the cells in the 24 well culture plate, a part (50 μl) of the lysate was transferred to a 96 well black microplate. The solution used for treating the cell pellets was successively diluted with sodium lauryl sulfate solution and used as solutions for drawing an analytical curve. Also, a part (50 μl) of the solutions for drawing an analytical curve was each transferred to the 96 well black microplate. […] The fluorescence was measured by a microplate reader (excitation wavelength: 355 nm, measurement wavelength: 460 nm) within 5 minutes from the addition. The cell number of the 24 well cell culture plate was calculated from the analytical curve drawn (conversion formula). The evaluation criteria were as follows.
Where [3] appears, read: compound used in the Examples, stated in the description.

T1 sequence (P09038 143-288): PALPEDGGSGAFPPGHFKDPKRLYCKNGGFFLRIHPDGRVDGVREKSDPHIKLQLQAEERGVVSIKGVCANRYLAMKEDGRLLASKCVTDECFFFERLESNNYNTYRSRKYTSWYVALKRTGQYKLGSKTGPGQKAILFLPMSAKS

On to `O=S(=O)([O-])OC[C@H]1O[C@@](COS(=O)(=O)[O-])(O[C@H]2O[C@H](COS(=O)(=O)[O-])[C@@H](OS(=O)(=O)[O-])[C@H](OS(=O)(=O)[O-])[C@H]2OS(=O)(=O)[O-])[C@@H](OS(=O)(=O)[O-])[C@@H]1OS(=O)(=O)[O-].[K+].[K+].[K+].[K+].[K+].[K+].[K+].[K+]` [sucrose 8SO3K], for which the “concentration showing a suppressive effect on a decrease in the bFGF concentration of the medium” value at bFGF is given as “not less than 2.5 μg/ml”. In addition, the “bFGF concentration relative to that of 4° C. control (ELISA)” value at bFGF (test compound 250 pg/ml) was “x (bFGF concentration was less than 10% relative to that of 4 °C control)”; at bFGF (test compound 25 ng/ml), “x (bFGF concentration was less than 10% relative to that of 4 °C control)”; at bFGF (test compound 250 ng/ml), “x (bFGF concentration was less than 10% relative to that of 4 °C control)”; on bFGF (test compound 25 μg/ml) it was “+++ (bFGF concentration was not less than 70% relative to that of 4 °C control)”; on bFGF (test compound 250 μg/ml), “+++ (bFGF concentration was not less than 70% relative to that of 4 °C control)”. Besides, in data set [1] (ICPS-8100, evaluation samples containing 0.01 wt % test compound), the “sulfur content Found (inorganic analysis)” value stood at 17 wt %. In addition, the “sulfate group / sulfo group content level” value in data set [1] (setting [3]) is on record as 48.8 wt %. Besides, the “sulfur content (content level of sulfur)” value in data set [1] (setting [3]) amounted to 19.5 wt %. Also, the effectiveness cells result in data set [2] is reported as “⊚ (⊚ not less than 120%)”.
